Our source for the remaining activity values is patent US12227500B2, “Substituted pyrrolo[2,3-b]pyridines for suppressing toxic endoplasmic reticulum stress” (THE TRUSTEES OF COLUMBIA UNIVERSITY IN THE CITY OF NEW YORK, priority 2018, dated 2025).

Experiment in all cases: Radiolabeled ATP kinase assay, panel of 371 kinases (Table S6)
Holding throughout (type): biochemical

Assay [1] has as its target T1, panel of 371 human kinases (Homo sapiens, UniProt O60285).
T1 construct: purchased Reaction Biology Corp
The conditions noted are these: ARK5/NUAK1; 0.1 μM; 10 μM ATP; read-out: % Enzyme Activity (relative to DMSO controls). An excerpt:
(§1) ; FIG. 38C). […]. Further targeted analyses, such as genetic knock-down or knock-out, may be warranted to parse the role of these additional kinases in our model of neurodegeneration.

Assay [2] addresses T2, panel of 371 human kinases (Homo sapiens, UniProt O60674).
T2 construct: purchased Reaction Biology Corp
The conditions noted are these: JAK2; 0.1 μM; 10 μM ATP; read-out: % Enzyme Activity (relative to DMSO controls).
Text: as §1

The target of assay [3] is T3, panel of 371 human kinases (Homo sapiens, UniProt P05771).
T3 construct: purchased Reaction Biology Corp
The conditions noted are these: PKCb1; 0.1 μM; 10 μM ATP; read-out: % Enzyme Activity (relative to DMSO controls).
Text: as §1

The target of assay [4] is T4, panel of 371 human kinases (Homo sapiens, UniProt P16234).
T4 construct: purchased Reaction Biology Corp
As to conditions: PDGFRa; 0.1 μM; 10 μM ATP; read-out: % Enzyme Activity (relative to DMSO controls).
Text: as §1

The target of assay [5] is T5, panel of 371 human kinases (Homo sapiens, UniProt P17252).
T5 construct: purchased Reaction Biology Corp
As to conditions: PKCa; 0.1 μM; 10 μM ATP; read-out: % Enzyme Activity (relative to DMSO controls).
Text: as §1

Assay [6] addresses T6, panel of 371 human kinases (Homo sapiens, UniProt P19784).
T6 construct: purchased Reaction Biology Corp
As to conditions: CK2a2; 0.1 μM; 10 μM ATP; read-out: % Enzyme Activity (relative to DMSO controls).
Text: as §1

For assay [7], the target named is T7, panel of 371 human kinases (Homo sapiens, UniProt P24723).
T7 construct: purchased Reaction Biology Corp
The conditions noted are these: PKCeta; 0.1 μM; 10 μM ATP; read-out: % Enzyme Activity (relative to DMSO controls).
Text: as §1

In assay [8] the target is T8, panel of 371 human kinases (Homo sapiens, UniProt P37023).
T8 construct: purchased Reaction Biology Corp
The conditions noted are these: ALK1/ACVRL1; 0.1 μM; 10 μM ATP; read-out: % Enzyme Activity (relative to DMSO controls).
Text: as §1

Assay [9] has as its target T9, panel of 371 human kinases (Homo sapiens, UniProt P48729).
T9 construct: purchased Reaction Biology Corp
As to conditions: CK1a1; 0.1 μM; 10 μM ATP; read-out: % Enzyme Activity (relative to DMSO controls).
Text: as §1

In assay [10] the target is T10, panel of 371 human kinases (Homo sapiens, UniProt P51955).
T10 construct: purchased Reaction Biology Corp
As to conditions: NEK2; 0.1 μM; 10 μM ATP; read-out: % Enzyme Activity (relative to DMSO controls).
Text: as §1

Assay [11] concerns the target T11, panel of 371 human kinases (Homo sapiens, UniProt P54753).
T11 construct: purchased Reaction Biology Corp
As to conditions: EPHB3; 0.1 μM; 10 μM ATP; read-out: % Enzyme Activity (relative to DMSO controls).
Text: as §1

Assay [12] deals with T12, panel of 371 human kinases (Homo sapiens, UniProt P57078).
T12 construct: purchased Reaction Biology Corp
As to conditions: RIPK4; 0.1 μM; 10 μM ATP; read-out: % Enzyme Activity (relative to DMSO controls).
Text: as §1

The target of assay [13] is T13, panel of 371 human kinases (Homo sapiens, UniProt Q13177).
T13 construct: purchased Reaction Biology Corp
The conditions noted are these: PAK2; 0.1 μM; 10 μM ATP; read-out: % Enzyme Activity (relative to DMSO controls).
Text: as §1

For assay [14], the target named is T14, panel of 371 human kinases (Homo sapiens, UniProt Q13237).
T14 construct: purchased Reaction Biology Corp
As to conditions: PKG2/PRKG2; 0.1 μM; 10 μM ATP; read-out: % Enzyme Activity (relative to DMSO controls).
Text: as §1

For assay [15], the target named is T15, panel of 371 human kinases (Homo sapiens, UniProt Q15759).
T15 construct: purchased Reaction Biology Corp
The conditions noted are these: P38b/MAPK11; 0.1 μM; 10 μM ATP; read-out: % Enzyme Activity (relative to DMSO controls).
Text: as §1

Assay [16] concerns the target T16, panel of 371 human kinases (Homo sapiens, UniProt Q86UX6).
T16 construct: purchased Reaction Biology Corp
As to conditions: STK32C/YANK3; 0.1 μM; 10 μM ATP; read-out: % Enzyme Activity (relative to DMSO controls).
Text: as §1

Assay [17] addresses T17, panel of 371 human kinases (Homo sapiens, UniProt Q92630).
T17 construct: purchased Reaction Biology Corp
The conditions noted are these: DYRK2; 0.1 μM; 10 μM ATP; read-out: % Enzyme Activity (relative to DMSO controls).
Text: as §1

In assay [18] the target is T18, panel of 371 human kinases (Homo sapiens, UniProt Q96NX5).
T18 construct: purchased Reaction Biology Corp
As to conditions: CAMK1g; 0.1 μM; 10 μM ATP; read-out: % Enzyme Activity (relative to DMSO controls).
Text: as §1

Assay [19] concerns the target T19, panel of 371 human kinases (Homo sapiens, UniProt Q96PF2).
T19 construct: purchased Reaction Biology Corp
The conditions noted are these: TSSK2; 0.1 μM; 10 μM ATP; read-out: % Enzyme Activity (relative to DMSO controls).
Text: as §1

Assay [20] concerns the target T20, panel of 371 human kinases (Homo sapiens, UniProt Q9BUB5).
T20 construct: purchased Reaction Biology Corp
The conditions noted are these: MNK1; 0.1 μM; 10 μM ATP; read-out: % Enzyme Activity (relative to DMSO controls).
Text: as §1

Assay [21] addresses T21, panel of 371 human kinases (Homo sapiens, UniProt Q9NQU5).
T21 construct: purchased Reaction Biology Corp
As to conditions: PAK6; 0.1 μM; 10 μM ATP; read-out: % Enzyme Activity (relative to DMSO controls).
Text: as §1

Assay [22] concerns the target T22, panel of 371 human kinases (Homo sapiens, UniProt Q9UIK4).
T22 construct: purchased Reaction Biology Corp
The conditions noted are these: DAPK2; 0.1 μM; 10 μM ATP; read-out: % Enzyme Activity (relative to DMSO controls).
Text: as §1

In assay [23] the target is T23, panel of 371 human kinases (Homo sapiens, UniProt Q9UK32).
T23 construct: purchased Reaction Biology Corp
The conditions noted are these: RSK4; 0.1 μM; 10 μM ATP; read-out: % Enzyme Activity (relative to DMSO controls).
Text: as §1

Assay [24] concerns the target T24, panel of 371 human kinases (Homo sapiens, UniProt Q9Y572).
T24 construct: purchased Reaction Biology Corp
As to conditions: RIPK3; 0.1 μM; 10 μM ATP; read-out: % Enzyme Activity (relative to DMSO controls).
Text: as §1

T6 sequence (P19784 whole entry): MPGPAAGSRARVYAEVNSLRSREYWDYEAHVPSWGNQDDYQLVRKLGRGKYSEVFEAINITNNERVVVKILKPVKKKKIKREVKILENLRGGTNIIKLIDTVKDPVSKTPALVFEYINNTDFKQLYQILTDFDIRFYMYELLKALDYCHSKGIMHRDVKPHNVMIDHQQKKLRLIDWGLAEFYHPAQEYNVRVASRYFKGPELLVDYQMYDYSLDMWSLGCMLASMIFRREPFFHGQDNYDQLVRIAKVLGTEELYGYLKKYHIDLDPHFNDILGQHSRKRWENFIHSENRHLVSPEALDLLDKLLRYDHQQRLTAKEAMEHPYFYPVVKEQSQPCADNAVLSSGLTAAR
T15 sequence (Q15759 whole entry): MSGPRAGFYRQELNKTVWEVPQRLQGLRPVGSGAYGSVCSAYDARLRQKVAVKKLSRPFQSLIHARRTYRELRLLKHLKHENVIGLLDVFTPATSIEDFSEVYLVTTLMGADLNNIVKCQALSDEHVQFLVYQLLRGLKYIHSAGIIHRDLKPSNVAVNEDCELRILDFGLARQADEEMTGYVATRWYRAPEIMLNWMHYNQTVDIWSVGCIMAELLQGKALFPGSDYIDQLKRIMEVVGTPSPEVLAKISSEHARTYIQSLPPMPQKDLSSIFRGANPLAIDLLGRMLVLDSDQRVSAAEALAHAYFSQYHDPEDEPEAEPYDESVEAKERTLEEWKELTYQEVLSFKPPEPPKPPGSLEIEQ
T23 sequence (Q9UK32 whole entry): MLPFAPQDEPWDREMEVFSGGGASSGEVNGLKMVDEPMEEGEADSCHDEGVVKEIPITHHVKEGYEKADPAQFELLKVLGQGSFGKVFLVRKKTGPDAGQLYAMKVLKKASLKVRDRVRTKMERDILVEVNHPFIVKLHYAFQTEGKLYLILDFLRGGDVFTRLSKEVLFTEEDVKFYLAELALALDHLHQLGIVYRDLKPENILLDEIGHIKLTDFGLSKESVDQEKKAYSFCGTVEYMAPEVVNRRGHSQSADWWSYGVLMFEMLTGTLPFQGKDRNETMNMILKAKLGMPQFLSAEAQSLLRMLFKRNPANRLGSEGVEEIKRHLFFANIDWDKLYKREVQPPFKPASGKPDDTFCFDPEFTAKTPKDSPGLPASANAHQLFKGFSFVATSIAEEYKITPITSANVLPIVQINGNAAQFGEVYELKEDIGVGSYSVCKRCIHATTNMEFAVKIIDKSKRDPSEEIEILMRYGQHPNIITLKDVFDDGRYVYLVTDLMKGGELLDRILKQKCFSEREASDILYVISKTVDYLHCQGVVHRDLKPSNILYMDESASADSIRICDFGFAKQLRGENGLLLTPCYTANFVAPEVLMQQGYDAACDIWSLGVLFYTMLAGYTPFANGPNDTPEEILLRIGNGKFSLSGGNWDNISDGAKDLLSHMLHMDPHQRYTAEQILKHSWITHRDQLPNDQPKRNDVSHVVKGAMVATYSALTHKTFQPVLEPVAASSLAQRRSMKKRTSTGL
T19 sequence (Q96PF2 whole entry): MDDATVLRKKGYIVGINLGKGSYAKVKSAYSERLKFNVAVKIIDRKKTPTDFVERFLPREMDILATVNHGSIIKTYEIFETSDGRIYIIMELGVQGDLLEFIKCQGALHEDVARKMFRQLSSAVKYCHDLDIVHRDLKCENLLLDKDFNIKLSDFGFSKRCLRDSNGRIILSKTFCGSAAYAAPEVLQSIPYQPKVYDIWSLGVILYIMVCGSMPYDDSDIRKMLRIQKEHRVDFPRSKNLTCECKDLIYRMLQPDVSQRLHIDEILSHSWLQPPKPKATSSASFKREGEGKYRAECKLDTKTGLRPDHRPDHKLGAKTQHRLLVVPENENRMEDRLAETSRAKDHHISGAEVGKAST
T11 sequence (P54753 34-998): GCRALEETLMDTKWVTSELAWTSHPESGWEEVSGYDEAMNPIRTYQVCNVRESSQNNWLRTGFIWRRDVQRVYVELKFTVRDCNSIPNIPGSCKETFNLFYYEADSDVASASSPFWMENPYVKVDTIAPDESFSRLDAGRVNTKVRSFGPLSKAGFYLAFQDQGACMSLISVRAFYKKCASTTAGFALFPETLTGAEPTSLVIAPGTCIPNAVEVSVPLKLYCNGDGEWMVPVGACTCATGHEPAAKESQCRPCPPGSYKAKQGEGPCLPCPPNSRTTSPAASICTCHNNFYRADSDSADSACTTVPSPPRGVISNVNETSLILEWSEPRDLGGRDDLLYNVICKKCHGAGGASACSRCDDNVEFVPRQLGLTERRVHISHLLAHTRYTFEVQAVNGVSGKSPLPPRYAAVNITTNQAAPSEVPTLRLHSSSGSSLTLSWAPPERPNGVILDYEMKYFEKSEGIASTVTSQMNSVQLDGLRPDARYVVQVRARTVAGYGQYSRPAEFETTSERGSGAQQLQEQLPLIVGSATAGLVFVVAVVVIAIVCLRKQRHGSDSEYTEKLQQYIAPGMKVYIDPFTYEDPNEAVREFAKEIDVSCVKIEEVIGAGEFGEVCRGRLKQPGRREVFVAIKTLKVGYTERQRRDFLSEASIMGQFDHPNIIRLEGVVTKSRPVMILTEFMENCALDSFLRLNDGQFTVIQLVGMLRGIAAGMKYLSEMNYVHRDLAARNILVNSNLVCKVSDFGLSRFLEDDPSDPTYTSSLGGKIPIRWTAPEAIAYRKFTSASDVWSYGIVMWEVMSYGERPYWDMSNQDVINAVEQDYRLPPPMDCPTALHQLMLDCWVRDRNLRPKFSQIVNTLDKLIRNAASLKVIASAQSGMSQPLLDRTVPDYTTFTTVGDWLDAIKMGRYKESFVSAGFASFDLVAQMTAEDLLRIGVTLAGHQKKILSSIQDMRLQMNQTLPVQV
T8 sequence (P37023 22-503): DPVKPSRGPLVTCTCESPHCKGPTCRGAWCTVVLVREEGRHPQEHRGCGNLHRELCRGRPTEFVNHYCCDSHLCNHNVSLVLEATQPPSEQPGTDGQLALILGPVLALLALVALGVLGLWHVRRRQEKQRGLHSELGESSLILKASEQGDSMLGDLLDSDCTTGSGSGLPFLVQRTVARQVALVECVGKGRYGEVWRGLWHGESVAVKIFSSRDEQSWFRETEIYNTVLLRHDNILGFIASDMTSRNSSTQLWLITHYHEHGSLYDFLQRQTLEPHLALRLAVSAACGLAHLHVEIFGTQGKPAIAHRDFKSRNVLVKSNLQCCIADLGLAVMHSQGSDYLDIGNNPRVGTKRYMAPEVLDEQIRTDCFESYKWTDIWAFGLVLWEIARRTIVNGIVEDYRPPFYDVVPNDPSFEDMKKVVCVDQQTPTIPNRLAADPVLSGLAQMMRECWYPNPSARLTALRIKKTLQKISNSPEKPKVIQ
T24 sequence (Q9Y572 whole entry): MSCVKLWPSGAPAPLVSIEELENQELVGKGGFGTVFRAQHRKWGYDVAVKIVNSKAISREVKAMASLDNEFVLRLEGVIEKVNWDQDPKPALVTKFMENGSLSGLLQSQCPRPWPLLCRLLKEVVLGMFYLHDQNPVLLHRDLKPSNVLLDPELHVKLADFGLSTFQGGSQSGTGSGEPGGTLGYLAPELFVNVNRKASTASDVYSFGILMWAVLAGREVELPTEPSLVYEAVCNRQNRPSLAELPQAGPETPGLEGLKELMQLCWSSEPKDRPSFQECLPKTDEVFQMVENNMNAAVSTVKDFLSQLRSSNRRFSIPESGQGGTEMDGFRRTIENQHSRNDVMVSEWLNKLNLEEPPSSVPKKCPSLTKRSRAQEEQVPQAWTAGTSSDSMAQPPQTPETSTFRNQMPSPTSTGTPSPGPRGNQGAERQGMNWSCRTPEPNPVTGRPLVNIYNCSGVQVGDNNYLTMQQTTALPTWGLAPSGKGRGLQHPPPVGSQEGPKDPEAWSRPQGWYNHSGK
T20 sequence (Q9BUB5 whole entry): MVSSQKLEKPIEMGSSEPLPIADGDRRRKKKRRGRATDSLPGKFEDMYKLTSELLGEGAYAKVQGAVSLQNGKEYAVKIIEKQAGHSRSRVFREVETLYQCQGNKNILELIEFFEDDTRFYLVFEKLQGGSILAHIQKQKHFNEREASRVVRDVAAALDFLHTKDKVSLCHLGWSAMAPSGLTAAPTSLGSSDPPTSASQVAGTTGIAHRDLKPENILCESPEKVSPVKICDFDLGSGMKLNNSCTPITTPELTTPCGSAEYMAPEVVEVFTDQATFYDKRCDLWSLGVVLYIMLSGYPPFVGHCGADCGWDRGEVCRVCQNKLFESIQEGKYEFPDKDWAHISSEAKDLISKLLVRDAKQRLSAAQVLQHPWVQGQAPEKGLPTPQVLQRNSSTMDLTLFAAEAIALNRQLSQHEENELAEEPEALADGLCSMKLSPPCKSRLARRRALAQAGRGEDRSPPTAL

On to `OCCN1CCN(Cc2ccc(-c3cnc4[nH]cc(-c5cccc(Cl)c5)c4c3)cc2)CC1` [Compound 12k, 2-(4-(4-(3-(3-Chlorophenyl)-1H-pyrrolo[2,3-b]pyridin-5-yl)benzyl)piperazin-1-yl)ethan-1-ol], for which the remaining activity at 0.1 µM is 14.4% in [1]; 93% in assay [2]; 86.2% in [3]; 87.8% in assay [4]; 98.5% in assay [5]; 89% in assay [6]. Besides, the remaining activity at 0.1 µM in [7] came to 94.6%; in [8], 100%; in [9], 91.6%; in assay [10], 92%; in [11], 101%; in [12], 98%. Also, the remaining activity at 0.1 µM in [13] was 85%; in [14] it was 88.7%; in [15], 94.2%; in [16] it was 93%; in assay [17], 85.6%; in assay [18] it was 101%. For the same molecule, the remaining activity at 0.1 µM came out at 108% in [19]; 90.7% in assay [20]; 96.3% in [21]; 105% in assay [22]; 41.2% in assay [23]; 99.4% in [24].
Turning to `CN1CCN(Cc2ccc(-c3cnc4[nH]cc(-c5ccc6[nH]ccc6c5)c4c3)cc2)CC1` [Compound 1, 3-(1H-Indol-5-yl)-5-(4-((4-methylpiperazin-1-yl)methyl)phenyl)-1H-pyrrolo[2,3-b]pyridine, reference compound], the remaining activity at 0.1 µM amounted to 26.9% in assay [1]; 90.2% in [2]; 78.3% in assay [3]; 86.9% in assay [4]; 91.4% in assay [5]; 84.3% in [6]. Also, the remaining activity at 0.1 µM turned out to be 103% in assay [7]; 106% in assay [8]; 102% in assay [9]; 96.2% in assay [10]; 107% in assay [11]; 98.3% in [12]. In addition, the remaining activity at 0.1 µM in assay [13] worked out at 97.1%; in [14], 93.8%; in assay [15], 87.4%; in [16] it was 98.3%; in assay [17], 71.7%; in assay [18] it was 97.8%. Moreover, the remaining activity at 0.1 µM in [19] came out at 115%; in [20] it was 94%; in [21] it was 94.6%; in assay [22] it was 118%; in [23], 83.5%; in assay [24] it was 100%.
